Values quoted from earlier work as cited in patent US20110281813A1, “METHOD OF TREATING C-KIT POSITIVE RELAPSED ACUTE MYELOID LEUKEMIA” (priority 2008, published 2011).
Structures can show the parent of a compound that is named as a salt.

Tested on: relapsed/ refractory AML

Q: Which single agent activity does the source give for `Cc1ccc(NC(=O)c2ccc(CN3CCN(C)CC3)cc2)cc1Nc1nccc(-c2cccnc2)n1` [Imatinib mesylate, 4-(4-methylpiperazin-1-ylmethyl)-N-[4-methyl-3-(4-(pyridin-3-yl)pyrimidin-2-ylamino)phenyl]-benzamide] here?
A: has single agent activity
